In publication PMC9154793, “Design, synthesis, and biological evaluation of triazole-pyrimidine-methylbenzonitrile derivatives as dual A2A/A2B adenosine receptor antagonists” (Journal of Enzyme Inhibition and Medicinal Chemistry, 2022):
“Also recorded” adds a separate entry of the source.

How the values were obtained:
PBMCs = assay: T-cell activation assay (IL-2 production in PBMCs, NECA-suppressed, anti-CD3/anti-CD28); type: cell-based; conditions: 10, 100, 1000 nM antagonist with 1000 nM NECA; ELISA after 48 h; Figure 3
Method: The effector functions of T cells that express A2 ARs can be evaluated by measuring specific cytokine production[4]^,[9]^,[38]. In this study, the efficiencies of selected antagonists on IL-2 production (T cell activation) were examined. […] However, when the antagonist was added, the concentration of IL-2 was restored, indicating the inhibition effect of NECA was blocked.
Figure 3. The efficiencies of selected compounds for IL-2 production. The efficiencies of selected antagonists on T-cell activation at 10 nM, 100 nM, and 1000 nM were tested in the presence or absence of 1000 nM NECA. The DMSO control was tested in the absence of both antagonists and NECA. The NECA control was tested without antagonists in the presence of 1000 nM NECA.
Cryopreserved PBMCs (Allcells) were thawed and recovered in RPMI1640 medium overnight before being used. And compounds to be tested were diluted with DMSO to 100 folds of working concentrations. Then PBMCs were added to 96-well U bottom plate (2.5 × 10^5 cells per well). To the cells, 2 μl of NECA and 2 μl of each diluted compound (a final concentration of DMSO is 2%) were added. Then, cells were incubated at 37 °C under 5% CO2 for 1 h. Add 100 μl anti-CD3 (2 μg/ml) and anti-CD28 antibody (2 μg/ml) to each well and cells were cultured for 48 h. After 48 h, supernatants were collected and IL-2 concentration was detected by ELISA.

[1] = Metabolic stability in human liver microsomes; type: in vitro ADME
Method: The metabolic stability is an important focus for further compound optimisation. Compounds 7f, 7i, and AB928 were chosen to evaluate the stability in rat liver microsomes and human liver microsomes. For the microsomal metabolic experiment, 7-ethoxycoumarin (7-EC) was used as a control. As shown in Table 4 (see Supporting information for raw data), the CLint(liver) of 7-EC in rats and humans was 10.0 and 9.0 ml/min/g liver, respectively, indicating the experimental test system was reliable.
Metabolic stabilities of compounds 7f, 7i, and AB928 in liver microsomes were studied with pooled human (male) liver microsomes solution (20 mg/ml) and male Sprague–Dawley rats pooled liver microsomes solution (20 mg/ml) purchased from Research Institute for Liver Diseases (Shanghai) Co. Ltd. Both liver microsomes solutions (140 μl) were diluted by 3948 μl of water and 280 μl of phosphate buffered saline. The assay procedure: 640 μl of diluted liver microsomes solution was added to a solution of compound working solution (16 μl, 25 μM in DMSO) and the mixed solution was incubated at 37 °C for 5 min. Then 160 μl of NADPH generating system was added and take out 100 μl from the mixed solution was added 200 μl of acetonitrile solution to stop the reaction at the set incubation time (0 min, 10 min, 20 min, 30 min, 40 min, 50 min, and 60 min). All stopped reaction solutions were vortex mixed (3 min) and centrifuged (10,000 rpm, 4 °C for 10 min). Then 50 μl of the supernatant was analysed by UPLC-MS/MS system (details of the analytical method see Supporting information). […]
8. Metabolic stability in human and rat liver microsomes
Metabolic stabilities of compounds 7f, 7i and AB928 in liver microsomes were studied with pooled human (male) liver microsomes solution (20 mg/mL) and male Sprague - Dawley rats pooled liver microsomes solution (20 mg/mL) purchased from Research Institute for Liver Diseases (Shanghai) Co. Ltd. Both liver microsomes solutions (140 μL) were diluted by 3948 μL of water and 280 μL of phosphate buffered saline. The assay procedure: 640 μL of diluted liver microsomes solution was added to a solution of compound working solution (16 μL, 25 μM in DMSO) and the mixed solution was […]
(1 picture or pasted object on this page, not shown here) […]
incubated at 37 ℃ for 5 min. Then 160 μL of NADPH generating system was added and take out 100 μL from the mixed solution was added 200 μL of acetonitrile solution to stop the reaction at the set incubation time (0 min, 10 min, 20 min, 30 min, 40 min, 50 min, and 60 min). All stopped reaction solutions were vortex mixed (3 min) and centrifuged (10000 rpm, 4 ℃ for 10 min). Then 50 μL of the supernatant was analyzed […]
8.2 Chromatography and mass spectrometry conditions
UPLC was performed using an […] UPLC system (Waters, Milford, MA, […]
USA). Separation was achieved on a Waters BEH C18 column(100 mm × 2.1 mm， 1.7 μm) at 40 ℃. The injection volume of the sample solution was 5 μL. The mobile phase consisted of water (0.1% formic acid and ammonium acetate) and acetonitrile solution (20:80, v/v) at a flow rate of 0.4 mL/min within a running time of 6 min. Mass spectrometric analysis was performed on a Waters Xevo TQ-S triple quadrupole instrument using electrospray ionization in positive mode. Quantification was performed using multiple reaction monitoring (MRM) mode to monitor precursor-product ion transitions (Table S1).
Table S1. Conditions of MRM Detection. […]
Table S2. Raw data of metabolic stability in human and rat liver microsomes. […]
(min) Hum Rat Hum Rat Hum Rat Hum Rat
9. Analytical method of pharmacokinetics assay
Animal experiments were performed according to the institutional ethical guidelines on animal care and approved by the Institute Animal Care and Use Committee at Binzhou […]
Female Bal b/c mice (sourced from Jinan Pengyue Experimental Animal Breeding […]

SMILES: Cc1c(C#N)cccc1-c1cc(-c2cn(Cc3cccc(C#N)n3)nn2)nc(N)n1 [Compound 7f, 6-((4-(2-Amino-6-(3-cyano-2-methylphenyl)pyrimidin-4-yl)-1H-1,2,3-triazol-1-yl)methyl)picolinonitrile]
- IL-2 production (T cell activation) (PBMCs): sufficient activities to stimulate IL-2 production
- melting point: 147 to 148 °C
- metabolism on human liver microsomes (in words) [1]: hardly metabolised on human liver microsomes
- remaining at 10 min, 0.49 µM ([1]; male, human, microsomes): 96.3%
- remaining at 20 min, 0.49 µM ([1]; male, human, microsomes): 96.5%
- remaining at 0.5 h, 0.49 µM ([1]; male, human, microsomes): 107%
- remaining at 40 min, 0.49 µM ([1]; male, human, microsomes): 98.4%
- remaining at 50 min, 0.49 µM ([1]; male, human, microsomes): 102%
- remaining at 1 h, 0.49 µM ([1]; male, human, microsomes): 105%

SMILES: Cc1c(C#N)cccc1-c1cc(-c2cn(Cc3cccc(C(N)=O)n3)nn2)nc(N)n1 [Compound 7i, 6-((4-(2-Amino-6-(3-cyano-2-methylphenyl)pyrimidin-4-yl)-1H-1,2,3-triazol-1-yl)methyl)picolinamide]
- IL-2 production (T cell activation) (PBMCs): sufficient activities to stimulate IL-2 production; also recorded: better activity than AB928
- melting point: 151 to 152 °C
- metabolism on human liver microsomes (in words) [1]: hardly metabolised on human liver microsomes
- CLint(liver) Hum ([1]; human, microsomes): 0.06 mL/min/g
- half-life at 0.49 µM ([1]; male, human, microsomes): 19.2 h
- remaining at 10 min, 0.49 µM ([1]; male, human, microsomes): 98%
- remaining at 20 min, 0.49 µM ([1]; male, human, microsomes): 108%
- remaining at 0.5 h, 0.49 µM ([1]; male, human, microsomes): 116%
- remaining at 40 min, 0.49 µM ([1]; male, human, microsomes): 101%
- remaining at 50 min, 0.49 µM ([1]; male, human, microsomes): 95%
- remaining at 1 h, 0.49 µM ([1]; male, human, microsomes): 98.8%
